# Tests used:
# Format in all cases: physicochemical
# [1] = pH profiling solubility experiments; conditions: 24 hours
# Description: Procedure: pH profiling solubility experiments were performed on MH1 and MH2. Solubility was determined in singlicate by suspending sufficient compound in relevant media (1.00 ml) to give a maximum final concentration as shown in the Table 17.
# The suspensions were equilibrated at 25° C., on a Heidolph plate shaker set to 750 rpm for 24 hours. Samples were pH adjusted as required using 0.5M/1M HCl and 0.2M NaOH to within 0.1 of the desired pH unit (where possible). The pHs of the saturated solutions were measured (where applicable) and an appearance was recorded. The suspensions were filtered through a glass fibre C filter (particle retention […]) and diluted appropriately. Quantitation was by HPLC with reference to a standard solution of approximately 0.15 mg/ml in DMSO. Different volumes of the standard, diluted and undiluted sample solutions were injected. The solubility was calculated using the peak areas determined by integration of the peak found at the same retention time as the principal peak in the standard injection.
# [2] = Solubility repeat at pH 1.2 (reverse addition); conditions: pH 1.2 buffered media, pH 1.2, simulated gastric fluid, thermodynamic from solid, pH maintained at 1.2, reverse addition
# Description: Procedure: pH 1.2 buffered media (0.4 ml) was added to two separate 7 ml vials. For each compound, material was added in portions to the pH 1.2 media. After each addition of compound, the vial was vortex mixed and the pH and appearance was recorded. The samples were adjusted to pH 1.2 with 1M HCl to within 0.05 of the desired pH unit. This was repeated until no further material was available (˜400 mg for each form, which would give a maximum concentration of around 1000 mg/ml if no adjustment was required).
# [3] = Water activity experiments (slurries, XRPD)
# Description: MH1 (30.0 mg) was weighed into HPLC vials and placed in a vacuum oven to dry over the weekend. All samples were then placed in a desiccator prior to use to ensure dryness. Solvent ([…]) was added and slurries agitated at either 25° C. or 5° C. Further MH1 was added to any solutions formed to return to a slurry. Ethyl acetate and methyl acetate were both dried prior to use. After four days, the samples were analysed by XRPD with minimum exposure to ambient conditions.
# Selected samples were also characterised after standing at ambient for 2 days by XRPD, 1H NMR, TGA and DSC.
# [4] = Drying investigation of the two hydrates (vacuum oven, XRPD and TGA)
# Description: Procedure: MH1 and MH2 were placed in a vacuum oven at 50° C. and RT for 24 h. The samples were then analysed by TGA and XRPD immediately after removal and after 4 hours standing under ambient conditions.
# [5] = Stability studies with competitive slurries of the two hydrates; conditions: ambient conditions
# Description: Procedure: Saturated solutions of the supplied MH 1 (J08343) were prepared in different solvents/systems (1 ml). The saturated solutions were then filtered and used for competitive slurry experiments.
# MH1 and MH2 (ca. 15 mg each) were physically mixed before they were treated with the filtered saturated solutions (300 μL). The samples were stirred at 25° C. for 24 h then filtered, air dried and analysed by XRPD.
# The same solvents were used as for samples in water activity experiments with additional IPA/heptane mixtures as this is the current crystallisation solvent. This procedure was also followed for IPA/heptane at 5 and 50° C. (3 days slurrying).
# Further experiments were designed to increase the diversity of solvents/systems studied while still investigating the effect of water activity on the form obtained. This was with a view to define a solvent list for Phase 3 (Solvent Selection). Further saturated solutions were prepared as described in the procedure section using MH1 as supplied.
# [6] = Variable temperature XRPD (VT XRPD)
# Description: For variable temperature (VT) experiments the samples were prepared and analysed in an Anton Paar chromed sample holder. A heating/cooling rate of 10° C./min was used with a 2 min isothermal hold before the measurement started. The measurement parameters are as per the standard screening data collection method (detailed above). Measurements were taken at the following temperatures: 25, 50, 75, 100, 160, and 25° C. The sample was then reanalyzed by XRPD after 1 h to check for complete rehydration.
# MH1 was analysed at 25, 50, 75, 100, 160 and 25° C. (10° C./min heating rate and a 2 min wait before the measurement started) on the Empyrean. The sample was then reanalysed by XRPD after 10 and 20 min to check for rehydration.
# Procedure: A second batch of MH2 material was prepared using the same procedure. This sample was then analysed by VTXRPD and by XRPD under vacuum.
# Compression studies = assay: Compression studies
# [7] = 0.5% water/EtOAc, Aw = 0.3, four days
# [8] = 0.8% water/MeOAc, Aw = 0.4, four days
# [9] = 1% water/EtOAc, Aw = 0.5, four days
# [10] = 1.5% water/EtOAc, Aw = 0.6, four days
# [11] = 2% water/EtOAc, Aw = 0.7, four days
# [12] = 2.7% water/EtOAc, Aw = 0.8, four days
# [13] = 7.5% water/MeOAc, Aw = 0.9, four days
# [14] = EtOAc, Sieves, slurry four days
smiles,measurement,setting,value
"C[C@@H]1CN(Cc2ncccn2)C[C@H]1c1cn2c(C3CCOCC3)ncc2c(=O)[nH]1 [MH1, 6-[(3S,4S)-4-methyl-1-(pyrimidin-2-ylmethyl)pyrrolidin-3-yl]-3-tetrahydropyran-4-yl-7H-imidazo[1,5-a]pyrazin-8-one]",Solubility,"[1]; media pH 1.2, 25° C., pH not maintained, final pH 5.02 (MH1-A), 6.63 (MH2-A)",>275 mg/mL
same,Solubility,"[1]; media pH 4.0, 25° C., listed as MH1-B",>106 mg/mL
same,Solubility,"[1]; media pH 6.5, 25° C., listed as MH1-C",>164 mg/mL
same,Solubility,"[1]; media pH 7.5, 25° C., listed as MH1-D",62 mg/mL
same,Solubility,[2],> 153 mg/mL
same,Results for 5° C. (form by XRPD),[3]; [7],MH1
same,Results for 25° C. (form by XRPD),[3]; [7],MH1
same,Results for 5° C. (form by XRPD),[3]; [8],MH1
same,Results for 25° C. (form by XRPD),[3]; [8],MH1
same,Results for 5° C. (form by XRPD),[3]; [9],New Form
same,Results for 25° C. (form by XRPD),[3]; [9],MH1
same,Results for 5° C. (form by XRPD),[3]; [10],New Form
same,Results for 25° C. (form by XRPD),[3]; [10],MH1
same,Results for 5° C. (form by XRPD),[3]; [11],New Form
same,Results for 25° C. (form by XRPD),[3]; [11],New Form
same,Results for 5° C. (form by XRPD),[3]; [12],New Form
same,Results for 25° C. (form by XRPD),[3]; [12],New Form
same,Results for 5° C. (form by XRPD),[3]; [13],New Form
same,Results for 25° C. (form by XRPD),[3]; [13],New Form
same,Results for 5° C. (form by XRPD),[3]; [14],MH1
same,Results for 25° C. (form by XRPD),[3]; [14],MH1
same,"XRPD (T = 0, 50° C.)","[4]; vacuum oven 50° C. 24 h, immediately after removal",Matches MH1 and AH
same,"TGA (T = 0, 50° C.)","[4]; vacuum oven 50° C. 24 h, immediately after removal, lost between 25 and 100° C.",0.3% w/w lost between
same,"TGA (T = 4 h, 50° C.)","[4]; vacuum oven 50° C. 24 h, then 4 hours ambient, lost between 25 and 100° C.",2.7% w/w lost between
same,"XRPD (T = 4 h, 50° C.)","[4]; vacuum oven 50° C. 24 h, then 4 hours at ambient conditions",Matches MH1
same,"XRPD (T = 0, RT)","[4]; vacuum oven RT 24 h, immediately after removal",Matches MH1 and AH
same,"TGA (T = 0, RT)","[4]; vacuum oven RT 24 h, immediately after removal, lost between 25 and 100° C.",0.3% w/w lost between
same,"TGA (T = 4 h, RT)","[4]; vacuum oven RT 24 h, then 4 hours ambient, lost between 25 and 100° C.",1.8% w/w lost between
same,"XRPD (T = 4 h, RT)","[4]; vacuum oven RT 24 h, then 4 hours at ambient conditions",Matches MH1
same,Relative stability of the forms,[5],most stable form at ambient conditions
same,TGA post VT XRPD mass loss,[6],3.2%
same,Form by VT XRPD upon heating,[6]; 75° C.,fully anhydrous
same,Form by VT XRPD after cooling back,[6]; re-cooled to 25° C.,peaks corresponding to MH1 are present
same,"Compression studies, form by XRPD",Compression studies,no conversion to the anhydrate

# From patent publication US12466832B2, “Monohydrate and crystalline forms of 6-[(3S,4S)-4-methyl-1-(pyrimidin-2-ylmethyl)pyrrolidin-3-yl]-3-tetrahydropyran-4-yl-7H-imidazo[1,5-a]pyrazin-8-one” (Cardurion Pharmaceuticals, Inc., priority 2018, dated 2025)
